Results as given in publication PMC6843445, “Pharmacokinetic Properties of Fluorescently Labelled Hydroxypropyl-Beta-Cyclodextrin” (Biomolecules, 2019).

Columns and labels:
[1] = In vivo and ex vivo fluorescence imaging; parameters: species or system Male BALB/c mice; conditions: mice, i.v.
Protocol: Male BALB/c mice (22–25 g) were bred and maintained in normal watering and feeding conditions in a Laboratory Animal Husbandry Facility, equipped with IVC (individually ventilated cages), controlled atmosphere-temperature, humidity and lighting (Vasile Goldis Western University, Arad, Romania). All experimental procedures were performed in compliance with the appropriate laws and institutional guidelines, and were approved by the Institutional Ethics Committee of Vasile Goldiș Western University of Arad (Arad, Romania). FITC-HPBCD (0.5 and 2.5 mg), dissolved in 0.1 mL saline solution was injected into the femoral vein of mice under general anaesthesia. Maintaining the surgical plane of anesthesia, mice were placed into an in vivo imaging system (In-vivo Xtreme, Carestream, Carestream Health Inc. USA). At 5, 15, 30, 45 and 60 min, fluorescence and X-ray images were recorded of the animals. After 30 or 60 min, the blood vessels of some animals were perfused by warm saline solution and their organs (livers, lungs, kidneys, spleens and brains) were removed for ex vivo imaging (excitation: 480 nm, emission: 535 nm).

[2] = system: HUVECs; assay: FITC-HPBCD uptake, flow cytometry; format: cell-based, Human
Protocol: (§1) Human umbilical vein endothelial cells (HUVECs) were removed from umbilical veins by exposure to dispase (0.2% in Hank’s balanced salt solution) and cultured in gelatin-coated flasks in medium 199 containing 15% foetal bovine serum (FBS), antibiotics, L-glutamine, sodium pyruvate and endothelial cell growth supplement from bovine pituitary. For the fluorescent microscopic experiments, cells were seeded onto gelatin-coated round glass coverslips and maintained in medium until the treatments.
In the flow cytometry experiments, HUVECs were treated with 50 µM FITC-HPBCD for 30 min at 37 °C and washed five times with ice-cold HBSS. Half of the samples were incubated for a further 60 min in HBSS at 37 °C. After the above-mentioned incubations every sample was trypsinized, the cell suspensions were washed twice with ice-cold HBSS and analyzed with a FACScan flow cytometer (BD Biosciences, San Jose, CA, USA). Propidium-iodide (PI) (2 µg/mL) was added to the samples to recognize dead cells and exclude them from the evaluation. FITC-HPBCD was excited by an argon laser at 488 nm and the emission was detected via 530/30 nm band pass filter. Data were analyzed by BDIS Cellquest software (Becton-Dickinson). The cellular fluorescence intensities of the FITC-HPBCD treated cells were compared to the fluorescence of the untreated control cells and expressed as relative cellular fluorescence intensities.

[3] = system: HUVECs; assay: Intracellular FITC-HPBCD accumulation, fluorescence microscopy; format: cell-based, Human; conditions: 50 µM, 30 min, 37 °C
Protocol: as §1
HUVECs, cultured on gelatin-coated glass coverslips were washed twice with Hank’s Balanced Salt Solution (HBSS) and treated with 50 µM FITC-HPBCD for 30 min at 37 °C. Cells were washed five times with ice-cold HBSS and fixed with 3% paraformaldehyde for 15 min. After fixation cells were washed with HBSS and the nuclei were stained with Hoechst 33,342 at the final concentration of 300 nM. Cells were washed again and mounted on microscope slides. […] Images were analyzed with ZEN 2012 v.1.1.0.0. software (Carl Zeiss Microscopy GmbH, Göttingen, Germany)

[4] = Tissue accumulation in the supernatant of tissue homogenates ex vivo; parameters: species or system BALB/c male mice; conditions: mice, i.v., after 60 min
Protocol: After the last blood sample collection, six animals were anaesthetized, and their blood vessels were perfused by warm saline solution. Finally, all mice were sacrificed, and the organs were removed from the six saline-perfused mice for further analysis. The collected organs (livers, lungs, kidneys, spleens, hearts and brains) were homogenized by adding 0.8 mL saline solution and the homogenates were centrifuged at 10,000 rpm for 20 min at 4 °C. From each sample, 0.1 mL of supernatant was placed into black 96-well plates and the fluorescence intensities were measured by microplate reader as described above. The lower limit of quantification of FITC-HPBCD in mouse plasma and organ homogenates was 0.25 µg/mL. The protein content of the tissue samples was determined by PierceTM BCA protein assay (Thermo Scientific, Rockford, IL, USA) according to the manufacturer’s instruction. FITC-HPBCD content of the samples was normalized to the tissue protein content. The animals were maintained in accordance with the Guidelines for the Care and Use of Laboratory Animals; experiments were approved by the Animal Care Committee of the University of Debrecen (permission no. 12/2014).

Substance: 6-deoxy-6-[(5/6)-fluoresceinylthioureido]-(2-hydroxypropyl)-β-cyclodextrin [FITC-HPBCD]
- ex vivo fluorescence of lungs vs untreated control, separated imaging ([1]; 0.5 mg): higher ex vivo fluorescence
- in vivo whole-body fluorescence distribution ([1]; 0.5 mg and 2.5 mg/animal, images at 5-60 min): distributed over the entire body of the animals
- ex vivo fluorescence of kidneys ([1]; 0.5 mg, after 30 min): relative higher fluorescence
- ex vivo fluorescence of kidneys ([1]; 2.5 mg/animal): especially high fluorescence
- ex vivo fluorescence of lung ([1]; 2.5 mg/animal): elevated intensity
- ex vivo fluorescence of organs vs control ([1]; 2.5 mg/animal, every organ (livers, lungs, kidneys, spleens, brains)): higher fluorescence intensities
- in vivo fluorescence of the bladder ([1]; 30 and 45 min, urinated out at 60 min): accumulated in the bladder
- ex vivo fluorescence of brains vs untreated ([1]; after 60 min): no difference
- ex vivo fluorescence of brains vs untreated ([1]; both doses (0.5 and 2.5 mg), after 30 min, separated examination): higher fluorescence than the untreated ones
- cellular fluorescence after further incubation in HBSS ([2]; 50 µM 30 min, then 60 min in HBSS): significantly decreased
- cellular fluorescence vs untreated control ([2]; 50 µM, 30 min incubation): significantly increased
- cellular localization by fluorescence microscopy [3]: detected in the cytoplasm of HUVECs in small green vesicles
- fluorescence intensities in the supernatant of liver, lung, spleen, heart and brain homogenates [4]: not elevated
- fluorescence intensity in the supernatant of kidney homogenates ([4]; normalized to tissue protein content): significant fluorescence
